Source: paper PMC4865845, “A human genome-wide loss-of-function screen identifies effective chikungunya antiviral drugs” (Nature Communications, 2016)

system: CHIKV; format: cell-based, chikungunya virus

First: s27210 (sense GGTTTTAAACATAACGAAA; chemistry not given here) [reference compound]
Second: s27237 (sense ACACTAAAGAATTCCGGAA; chemistry not given here) [reference compound]
The Score_si3 of the first is lower: -0.32 for the first, -0.27 for the second.

Going from “s27641 (sense GGGAAACAGTTGGAAGAGA; chemistry not given here)” to “s28379 (sense GAGTTACGATTGTACCCTA; chemistry not given here)”, the Score_si3 rises from 1.64 to 1.67.

Compared with “s28992 (GAGCAACTCTGGTCGTGTA; chemistry not given here)”, “s29269 (CAGTTTACCGAGGAAGAAA; chemistry not given here)” is higher in Score_si3: 0.46 for the first, 1.26 for the second.

Compared with “s30117 (GGTCTTTGGTGGTGTACAA; chemistry not given here)”, “s31180 (CCATAGATGAGAAGCGGTT; chemistry not given here)” is higher in Score_si3: 0.96 for the first, 1.93 for the second.

Going from “s31192 (GGAAGGACTTACTACTACA; chemistry not given here)” to “s31659 (CCTCTGAGGTGATCAATGA; chemistry not given here)”, the Score_si3 falls from 1.79 to 1.43.

Compared with “s31789 (AGGACATTATCAACCCGGA; chemistry not given here)”, “s32096 (GTTCCAGTATGGGAATTAT; chemistry not given here)” is higher in Score_si3: 1.5 for the first, 1.63 for the second.

Going from “s33487 (GGTTATCAATGACGAGCAA; chemistry not given here)” to “s34678 (GAGTTTAAGATGATGCCTA; chemistry not given here)”, the Score_si3 falls from 1.7 to 0.6.

First: s35017 (AAGACAGGCTGATCAACTA; chemistry not given here)
Second: s35332 (CAGGTATTCAGGTCCATGA; chemistry not given here)
The Score_si3 of the first is higher: 0.94 for the first, 0.27 for the second.

Going from “s35400 (ACGCAGAGGCGGGAACAAA; chemistry not given here)” to “s37713 (GAACCTCCTTCGGGATAAA; chemistry not given here)”, the Score_si3 falls from 0.6 to 0.52.

Compared with “s37726 (ACTTTTCCCTCTCTCCTAA; chemistry not given here)”, “s37918 (GAAGAGCACAAGAACCAGA; chemistry not given here)” is higher in Score_si3: 0.28 for the first, 0.93 for the second.

Compared with “s38242 (CGGTCTCATGTACCAGAAA; chemistry not given here)”, “s38295 (GCAATTCTGACGACAATAT; chemistry not given here)” is higher in Score_si3: 0.52 for the first, 1.57 for the second.

First: s38697 (GCAATTTGCTGTTGCCGAA; chemistry not given here)
Second: s38779 (CCAAGATGACTGTGAATAA; chemistry not given here)
The Score_si3 of the first is lower: -0.06 for the first, 0.42 for the second.

Going from “s38816 (GAACATCTGGATCAAGAGA; chemistry not given here)” to “s50141 (sense AGATACCTTTATGAATATA; chemistry not given here) [reference compound]”, the Score_si3 falls from 1.02 to -0.76.

“s50642 (sense CCTTCATGGTGGGACTGTA; chemistry not given here)” was tested, and the Score_si3 was 0.69.

Compared with “s27235 (sense AGACCCACACTAAAGAATT; chemistry not given here) [reference compound]”, “s27640 (sense TGAAAAACGTAGAAATGAA; chemistry not given here)” is higher in Score_si2: -0.6 for the first, 1.74 for the second.

Compared with “s28296 (sense CTTCCTCGGTGGAACACGA; chemistry not given here)”, “s28367 (sense CGACAAGAACGAAGACAGA; chemistry not given here) [reference compound]” is lower in Score_si2: 1.22 for the first, -1.08 for the second.

Going from “s28993 (CCATAGATCTGAATTGGGA; chemistry not given here)” to “s29017 (GTCAGTACTTTATCTCGTT; chemistry not given here)”, the Score_si2 rises from 0.6 to 1.25.

First: s29268 (GGATGCGAAAGACAGAGTA; chemistry not given here)
Second: s31191 (GATAATCAGTTCAACTAAA; chemistry not given here)
The Score_si2 of the first is lower: 1.55 for the first, 1.84 for the second.

Compared with “s31318 (GTACATCTTCGAATACGAT; chemistry not given here)”, “s31658 (CGGCCTCTGAGGTGATCAA; chemistry not given here)” is higher in Score_si2: 1.43 for the first, 1.55 for the second.

Going from “s31791 (GACCTTAAGATACCAGTAT; chemistry not given here)” to “s31800 (CCACACTCATCTATCGCAA; chemistry not given here)”, the Score_si2 falls from 1.71 to 1.32.

Compared with “s32097 (ACAGCGCAAGTTCCAGTAT; chemistry not given here)”, “s33489 (GGACTTCTGAAAATTCGCA; chemistry not given here)” is higher in Score_si2: 1.75 for the first, 1.9 for the second.

Compared with “s34427 (GGTCAGAGACCATCCAGAA; chemistry not given here)”, “s34679 (GGAAAGAAGGGAATGAGTT; chemistry not given here)” is lower in Score_si2: 1.71 for the first, 1.1 for the second.

First: s35016 (CCTGATCCACGAGAAGTCA; chemistry not given here)
Second: s35331 (GCAGGTAATCTCTATACTA; chemistry not given here)
The Score_si2 of the first is lower: 1.63 for the first, 1.81 for the second.

Compared with “s35401 (GGAACAAACTAGCCCTCAA; chemistry not given here)”, “s37715 (CCGGAGAACCTGAAACTCA; chemistry not given here)” is higher in Score_si2: 0.91 for the first, 1.43 for the second.

First: s37917 (GCCTCAGCTCAAACTCAAA; chemistry not given here)
Second: s38243 (AGAAATTCCGGAACCAATT; chemistry not given here)
The Score_si2 of the first is higher: 1.72 for the first, 0.8 for the second.

Compared with “s38293 (GTAACAACAAATACTCATA; chemistry not given here)”, “s38699 (CCAGGAACTATGACACGTA; chemistry not given here)” is lower in Score_si2: 1.65 for the first, 0.75 for the second.

Going from “s38777 (GGCTCAAACTGGGAGTCAA; chemistry not given here)” to “s49212 (sense GATCGTTCCTGGGTGTTCA; chemistry not given here)”, the Score_si2 falls from 1.07 to 0.94.

With “s51651 (sense TGAGCAGTGAGAACCCATA; chemistry not given here)” the Score_si2 was 1.55.

First: s27642 (sense GCATGATGTTCGTCCGCAA; chemistry not given here)
Second: s28365 (sense AGATCGACAAGAACGAAGA; chemistry not given here) [reference compound]
The Score_si4 of the first is higher: 1.26 for the first, -0.72 for the second.

Compared with “s28378 (sense CATTGTCACTTATTCGACT; chemistry not given here)”, “s28991 (GAAGAGGTTTTGGAGTATA; chemistry not given here)” is lower in Score_si4: 1.57 for the first, 0.22 for the second.

First: s29015 (GAGAGTATATTGACTATGA; chemistry not given here)
Second: s30118 (CCTGCTATCTTGGTTCCAA; chemistry not given here)
The Score_si4 of the first is lower: 0.52 for the first, 0.62 for the second.

Going from “s30606 (CAGTGATGGTGATTCAGAT; chemistry not given here)” to “s31181 (CCACTCGTTTTGACTATTA; chemistry not given here)”, the Score_si4 rises from 0.49 to 1.82.

First: s31193 (GGAATGATGTCGTCAGTAA; chemistry not given here)
Second: s31790 (GGCTGTTCCTGAGACTGCA; chemistry not given here)
The Score_si4 of the first is higher: 1.58 for the first, 0.92 for the second.

First: s32095 (CAGAAACGATCTACAAGAA; chemistry not given here)
Second: s32491 (GCCTGTATATGAGAGCCTT; chemistry not given here)
The Score_si4 of the first is higher: 1.53 for the first, 0.05 for the second.

First: s33488 (CCACCTAGCTTGTAACGAA; chemistry not given here)
Second: s33581 (GTACTTATATGAACGTATT; chemistry not given here)
The Score_si4 of the first is higher: 1.58 for the first, 1.43 for the second.

Compared with “s34429 (CTCCTGCCTTGAGCCCTTA; chemistry not given here)”, “s35018 (GTGTGAAGGTAGACCGTGA; chemistry not given here)” is higher in Score_si4: 0.3 for the first, 0.46 for the second.

Compared with “s35330 (CGGTGACTATGAAAGAAAT; chemistry not given here)”, “s36692 (GGCTATTGATTGTCCACAT; chemistry not given here) [reference compound]” is lower in Score_si4: 0.15 for the first, -0.43 for the second.

Going from “s37714 (GCTCCTCAAAGGATATGAA; chemistry not given here)” to “s37727 (GTAGCAGTGTGGTAGGATA; chemistry not given here)”, the Score_si4 rises from -0.71 to -0.44.

Compared with “s38241 (TCCTTTTCCATGTACCAGA; chemistry not given here)”, “s38294 (GGGTCCTGTTCATAAAGGA; chemistry not given here)” is higher in Score_si4: 0.18 for the first, 1.14 for the second.

Going from “s38698 (GGATTCTTGTTGGACTAAT; chemistry not given here)” to “s38778 (CCCTTCCTCTATTCGAACA; chemistry not given here)”, the Score_si4 rises from -0.7 to -0.27.

Compared with “s38817 (GCAAATCTCTCTATCCTTA; chemistry not given here)”, “s49211 (sense GTTCCTGGGTGTTCACCTA; chemistry not given here)” is higher in Score_si4: 0.06 for the first, 0.08 for the second.

Compared with “s50143 (sense AAATAAATCTGGTGCATTA; chemistry not given here) [reference compound]”, “s50641 (sense ACAACTCTGTGCACAACAA; chemistry not given here)” is higher in Score_si4: -0.41 for the first, 0.17 for the second.

First: s28294 (sense CATTCTGTGGTGAAACATT; chemistry not given here)
Second: s28640 (CACTCACACCATCCTATGA; chemistry not given here)
The Score_si1 of the first is lower: 1.28 for the first, 1.62 for the second.

Compared with “s31660 (CTGTCACACTCACTGAAAA; chemistry not given here)”, “s32489 (GGAACAAGCTGTGATCCCA; chemistry not given here)” is lower in Score_si1: 1.8 for the first, 1.66 for the second.

Compared with “s33582 (CACCTAGAGTACGAAAACA; chemistry not given here)”, “s36691 (CAGATGTTATGGATATAAT; chemistry not given here) [reference compound]” is lower in Score_si1: 1.69 for the first, -1.07 for the second.
